Read-outs that look alike come from different tables or passages of the source.
Assays:
[1] = target: T1, human recombinant Monoacylglycerol Lipase (Homo sapiens, UniProt Q99685); experiment: MAGL inactivation (enzyme progress curves, kinact/KI); type: biochemical; details: geometric mean
T1 sequence (Q99685 1-303): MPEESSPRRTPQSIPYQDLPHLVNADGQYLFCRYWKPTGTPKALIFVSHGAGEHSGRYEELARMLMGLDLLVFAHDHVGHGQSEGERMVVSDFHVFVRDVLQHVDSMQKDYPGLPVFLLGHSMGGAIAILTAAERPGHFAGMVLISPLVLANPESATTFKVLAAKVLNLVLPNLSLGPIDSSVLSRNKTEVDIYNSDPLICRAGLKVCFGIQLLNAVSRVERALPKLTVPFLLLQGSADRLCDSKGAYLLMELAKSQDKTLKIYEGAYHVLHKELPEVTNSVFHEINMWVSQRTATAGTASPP
Method: (§1) Assessment of MAGL inhibition utilizes human recombinant Monoacylglycerol Lipase and the fluorogenic substrate 7-hydroxycoumarinyl arachidonate (7-HCA, Biomol ST-502). 400 nL of a test compound at decreasing concentration (ranging from 150 μM down to 1.5 nM) was spotted into a 384-well back plate (PerkinElmer, 6007279) using a Labcyte Echo, followed by addition of 10 μL of MAGL enzyme in assay buffer (50 mM HEPES, pH 7.4, 100 mM NaCl, 5 mM MgCl2, 0.1% Triton X-100 and 25% glycerin). An equal volume of 7-HCA in assay buffer with 10% DMSO was added either immediately (T=0 min) or after a 30 minute incubation (T=30 min) to initiate the reaction. The final concentration of MAGL enzyme was […] and 7-HCA substrate was 5 μM. After these dilutions, the final concentration of the test compound ranged from 3 μM to 0.03 nM. The reaction was allowed to progress for 60 minutes, after which the plate was read at an Ex/Em of 340/465. Percent inhibitions were calculated based on control wells containing no compound (0% inhibition) and a control compound (e.g., a MAGL inhibitor whose activity is known or was previously reported in the literature, such as one with about 100% inhibition). IC50 values were generated based on a four parameter fit model using ABASE software from IDBS. See e.g., Wang, Y. et al., “A Fluorescence-Based Assay for Monoacylglycerol Lipase Compatible with Inhibitor Screening,” Assay and Drug Development Technologies, 2008, Vol. 6 (3) pp 387-393 (reporting an assay for measuring MAGL activity).
To measure MAGL inactivation, the same protocol for the (T=0 min) MAGL inhibition IC50 assay was performed with data collected every minute to acquire enzyme progress curves at decreasing concentrations of compound.

[2] = In vitro intrinsic clearance in human hepatocytes; type: in vitro ADME; details: 1 μM substrate, human hepatocytes 0.5 million viable cells per mL, 37° C.
Method: Test Compounds (Example 1-3 and Comparative-Compounds 1-4) were prepared as solutions in DMSO at 3 mM which were then diluted in media containing WEM. The final concentration of DMSO in the incubation was 0.03% (v/v). The in vitro half-life (t½) of each compound was determined in incubations containing substrate (1 μM), human hepatocytes (0.5 million viable cells per mL final concentration) in media containing WEM, 50 mM HEPES buffer (pH 7.4), and 26 mM sodium bicarbonate at 37° C. (all final concentrations) in a 96-well plate. The reaction mixture was pre-warmed at 37° C. for 30 min prior to the initiation of the incubation. The incubation was quenched with acetonitrile containing internal standards at the following time points: 0, 5, 15, 30, 60, 120, and 240 min (individual incubation plates per time point). The samples were vortexed followed by centrifugation. An aliquot of supernatant was transferred to a clean 96-well plate and analyzed by LC/MS-MS using multiple reaction monitoring. For control experiments, hepatocytes were omitted from the incubations.
The hepatocyte t½ (min) was obtained from a log-linear plot of the substrate depletion versus incubation time and was scaled to hepatic intrinsic clearance (CLint,app (μL/min/million cells) using the following equation: […]

[3] = target: T1, human recombinant Monoacylglycerol Lipase; experiment: MAGL inhibition enzymatic assay (7-HCA fluorogenic substrate); type: biochemical; details: geometric mean
Method: as §1

[4] = 30 minute incubation before substrate, read-out: MAGL (T = 30 min) IC50
[5] = substrate added immediately (T=0 min), read-out: MAGL (T = 0 min) IC50

| SMILES | MAGL kinact/KI [1] | HHEPs CLint, app [2] | IC50 [3, 4] | IC50 [3, 5] |
| --- | --- | --- | --- | --- |
| O=C(OC(C(F)(F)F)C(F)(F)F)N1CCC2(CCC(NS(=O)(=O)CC3CC3)CO2)CC1 (stereo not drawn) [Example 3, 1,1,1,3,3,3-Hexafluoropropan-2-yl 3-{[(cyclopropylmethyl)sulfonyl]amino}-1-oxa-9-azaspiro[5.5]undecane-9-carboxylate] | 3160 1/s per M | <3.57 μL/min/million | 28.5 nM | 298 nM |
| O=C(OC(C(F)(F)F)C(F)(F)F)N1CCC2(CC1)C[C@@H](NS(=O)(=O)CC1CC1)CO2 [Example 1, 1,1,1,3,3,3-Hexafluoropropan-2-yl (3R)-3-{[(cyclopropylmethyl)sulfonyl]amino}-1-oxa-8-azaspiro[4.5]decane-8-carboxylate] | 2990 1/s per M | <4.26 μL/min/million | 27.6 nM | 292 nM |
| O=C(OC(C(F)(F)F)C(F)(F)F)N1CCC2(CC1)C[C@@H](NS(=O)(=O)C1CC1)CO2 [Example 2, 1,1,1,3,3,3-Hexafluoropropan-2-yl (3R)-3-[(cyclopropylsulfonyl)amino]-1-oxa-8-azaspiro[4.5]decane-8-carboxylate] | 2050 1/s per M | 3.46 μL/min/million | 34.7 nM | 369 nM |

Reference: US20210309669A1, “Heterocyclic Spiro Compounds As MAGL Inhibitors” (Pfizer Inc., priority 2018, published 2021)
